For orientation: pIC50 means the IC50 on a negative log10 scale, so that one unit is a factor of ten.

pIC50: −log10 of the molar value.

What all share (type): biochemical
In one assay the target is Btk (Homo sapiens, UniProt Q06187). Description: Btk kinase activity, TR-FRET assay. To be noted: read-out: Btk (IC50). A digest of the protocol: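 Enzyme (Btk 0.5 nM; Lck 6 nM) reacted 1 h with inhibitor, ATP at Km and biotin-peptide substrate in pH 7.4 buffer, 10% DMSO. Phosphopeptide detected by Eu-p-Tyr100 antibody plus streptavidin-APC (665/615 nm). IC50 calculated from fitted Ki(app) via ATP/Km correction plus half total enzyme.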
Chain of Btk (Q06187 whole entry): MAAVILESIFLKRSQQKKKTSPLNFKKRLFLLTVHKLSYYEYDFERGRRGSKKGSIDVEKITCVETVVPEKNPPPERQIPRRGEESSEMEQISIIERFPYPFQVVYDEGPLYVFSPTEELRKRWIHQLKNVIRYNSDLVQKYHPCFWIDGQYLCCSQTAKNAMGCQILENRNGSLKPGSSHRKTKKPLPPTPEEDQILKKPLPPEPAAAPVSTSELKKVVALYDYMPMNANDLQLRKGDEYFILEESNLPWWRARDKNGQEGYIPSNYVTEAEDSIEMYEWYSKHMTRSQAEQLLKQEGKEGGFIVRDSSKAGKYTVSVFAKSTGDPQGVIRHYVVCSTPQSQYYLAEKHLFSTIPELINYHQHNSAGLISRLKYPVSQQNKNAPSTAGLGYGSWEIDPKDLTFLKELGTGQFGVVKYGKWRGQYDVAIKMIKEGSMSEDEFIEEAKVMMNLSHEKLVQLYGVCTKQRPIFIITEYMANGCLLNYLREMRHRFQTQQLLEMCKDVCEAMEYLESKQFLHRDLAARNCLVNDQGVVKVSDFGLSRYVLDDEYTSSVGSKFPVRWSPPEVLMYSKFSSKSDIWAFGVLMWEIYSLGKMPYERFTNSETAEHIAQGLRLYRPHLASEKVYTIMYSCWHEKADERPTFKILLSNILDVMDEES
(In general: Time-resolved FRET reads energy transfer from a long-lived donor to a nearby acceptor.)

A further assay deals with Lck (Homo sapiens, UniProt P06239). Kind of assay: Lck kinase activity, TR-FRET assay. The conditions noted are these: read-out: LCK (IC50). Here is the method:
Btk kinase activity is determined using a time-resolved fluorescence resonance energy transfer (TR-FRET) methodology. Measurements are performed in a reaction volume of 50 μL using 96-well assay plates. Kinase enzyme, inhibitor, ATP (at the Km for the kinase), and 1 […] (Biotin-AVLESEEELYSSARQ-NH2) are incubated in a reaction buffer composed of 20 mM Tris, 50 mM NaCl, MgCl2 (5-25 mM depending on the kinase), MnCl2 (0-10 mM), 1 mM DTT, 0.1 mM EDTA, 0.01% bovine serum albumin, 0.005% Tween-20, and 10% DMSO at pH 7.4 for one hour. The reaction is quenched by the addition of 1.2 equivalents of EDTA (relative to divalent cation) in 25 μL of 1× Lance buffer (Perkin-Elmer). Streptavidin-APC (Perkin-Elmer) and Eu-labeled p-Tyr100 antibody (Perkin-Elmer) in 1× Lance buffer are added in a 25 μL volume to give final concentrations of 100 nM and 2.5 nM, respectively, and the mixture is allowed to incubate for one hour. The TR-FRET signal is measured on a multimode plate reader with an excitation wavelength (λEx) of 330 nm and detection wavelengths (λEm) of 615 and 665 nm. Activity is determined by the ratio of the fluorescence at 665 nm to that at 615 nm. For each compound, enzyme activity is measured at various concentrations of compound. Negative control reactions are performed in the absence of inhibitor in replicates of six, and two no-enzyme controls are used to determine baseline fluorescence levels. Inhibition constants, Ki(app), ware obtained using the program BatchKi (Kuzmic et al. (2000), Anal. Biochem. 286:45-50). IC50s are obtained according to the equation: IC50={Ki(app)/(1+[ATP]/Km^ATP)}+[E]total/2;
For all kinases, [ATP]=Km^ATP, [Btk]total=0.5 nM and [Lck]total=6 nM.

The next assay has as its target EGFR (Homo sapiens, UniProt P00533). Kind of assay: Inhibition of a panel of kinases, in vitro HotSpot kinase assay: EGFR. Here is the method: The degree of inhibition of a panel of kinases is determined using the in vitro HotSpot kinase assay (purified enzymes, ^33P-ATP, an appropriate substrate and 1 uM ATP).

Chain of EGFR (P00533 25-1210): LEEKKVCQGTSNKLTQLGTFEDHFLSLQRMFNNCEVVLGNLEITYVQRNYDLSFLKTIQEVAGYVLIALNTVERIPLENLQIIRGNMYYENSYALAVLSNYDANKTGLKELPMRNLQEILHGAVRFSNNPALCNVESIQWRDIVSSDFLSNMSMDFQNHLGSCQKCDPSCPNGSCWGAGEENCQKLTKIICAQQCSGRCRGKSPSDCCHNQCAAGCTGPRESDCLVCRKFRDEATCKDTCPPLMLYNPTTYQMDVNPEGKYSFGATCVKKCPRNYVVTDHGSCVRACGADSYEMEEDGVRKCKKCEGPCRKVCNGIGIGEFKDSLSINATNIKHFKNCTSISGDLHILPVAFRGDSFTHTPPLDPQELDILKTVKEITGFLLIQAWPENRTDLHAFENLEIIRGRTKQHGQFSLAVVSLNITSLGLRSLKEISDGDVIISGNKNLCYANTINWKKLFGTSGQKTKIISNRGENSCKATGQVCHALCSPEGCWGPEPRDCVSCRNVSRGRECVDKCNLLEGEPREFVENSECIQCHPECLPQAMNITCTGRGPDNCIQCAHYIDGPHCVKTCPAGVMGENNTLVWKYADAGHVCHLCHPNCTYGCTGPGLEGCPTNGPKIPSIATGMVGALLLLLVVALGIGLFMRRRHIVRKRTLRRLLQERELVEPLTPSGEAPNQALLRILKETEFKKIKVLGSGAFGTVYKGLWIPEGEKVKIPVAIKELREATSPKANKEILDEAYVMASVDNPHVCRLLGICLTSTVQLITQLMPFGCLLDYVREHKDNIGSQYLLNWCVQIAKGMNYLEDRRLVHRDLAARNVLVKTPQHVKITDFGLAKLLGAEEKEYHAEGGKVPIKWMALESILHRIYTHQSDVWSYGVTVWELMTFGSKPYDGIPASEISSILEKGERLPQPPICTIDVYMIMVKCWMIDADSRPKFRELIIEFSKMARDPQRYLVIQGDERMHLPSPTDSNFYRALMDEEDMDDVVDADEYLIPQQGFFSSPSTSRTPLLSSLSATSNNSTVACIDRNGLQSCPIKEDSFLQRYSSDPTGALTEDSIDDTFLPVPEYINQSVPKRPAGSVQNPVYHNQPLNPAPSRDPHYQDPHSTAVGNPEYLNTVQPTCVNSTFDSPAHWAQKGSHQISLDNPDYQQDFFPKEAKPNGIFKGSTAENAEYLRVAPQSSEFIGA
Chain of Lck (P06239 whole entry, species assumed): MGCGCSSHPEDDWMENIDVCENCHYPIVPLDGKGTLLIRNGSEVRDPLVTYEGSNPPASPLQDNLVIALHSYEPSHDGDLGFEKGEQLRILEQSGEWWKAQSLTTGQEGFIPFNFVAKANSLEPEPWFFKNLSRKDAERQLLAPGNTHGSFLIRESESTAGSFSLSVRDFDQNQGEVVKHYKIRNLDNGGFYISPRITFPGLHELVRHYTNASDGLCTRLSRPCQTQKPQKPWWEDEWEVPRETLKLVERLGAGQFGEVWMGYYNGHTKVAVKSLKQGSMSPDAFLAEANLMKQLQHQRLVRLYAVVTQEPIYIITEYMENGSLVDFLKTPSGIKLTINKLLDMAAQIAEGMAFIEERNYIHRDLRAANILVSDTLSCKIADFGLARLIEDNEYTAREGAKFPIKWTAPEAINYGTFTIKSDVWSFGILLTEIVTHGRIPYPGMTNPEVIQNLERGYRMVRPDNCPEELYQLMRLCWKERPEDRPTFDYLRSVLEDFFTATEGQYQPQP

Turning to `CN(C/C=C/C(=O)N1CCCC[C@H]1CNc1n[nH]c2nccc(Oc3ccc(Oc4ccccc4)cc3)c12)C1CC1` [compound 37], the pIC50 on Btk was more than 7.00; on Lck, 6.00 to 7.00; at EGFR, 5.00 to 6.00.

For `CN(C(=O)/C=C/CN(C)C1CC1)c1cccc(Nc2n[nH]c3nccc(Oc4ccc(Oc5ccccc5)cc4)c23)c1` [compound 38], the pIC50 on Btk was more than 7.00; at Lck, 6.00 to 7.00; on EGFR, 6.00 to 7.00.

Take `CN(C)C/C=C/C(=O)N1CC[C@@H](Nc2n[nH]c3ncnc(Oc4ccc(Oc5ccccc5)cc4)c23)C1` [compound 39]: the pIC50 is more than 7.00 on Btk, 6.00 to 7.00 at Lck and more than 7.00 against EGFR.

As to `CN(C/C=C/C(=O)N1CC[C@@H](Nc2n[nH]c3nccc(Oc4ccc(OCc5cnn[nH]5)cc4)c23)C1)C1CC1` [compound 40], the pIC50 on Btk was more than 7.00; on Lck, 6.00 to 7.00; against EGFR, more than 7.00.

As to `N#CCC(=O)N1CC[C@@H](Nc2n[nH]c3nccc(Oc4ccc(Oc5ccccc5)cc4)c23)C1` [compound 44], the results for the pIC50 on Btk, at Lck and against EGFR were more than 7.00, more than 7.00 and 6.00 to 7.00, respectively.

As to `CN1CC[C@@H](Nc2n[nH]c3nccc(Oc4ccc(Oc5ccccc5)cc4)c23)C1` [compound 45], the pIC50 on Btk is more than 7.00; at Lck it was more than 7.00; on EGFR, 6.00 to 7.00.

In the case of `CC(=O)N1CC[C@@H](Nc2n[nH]c3nccc(Oc4ccc(Oc5ccccc5)cc4)c23)C1` [compound 46], the pIC50 on Btk was more than 7.00; at Lck, more than 7.00; on EGFR, 6.00 to 7.00.

As for `c1ccc(Oc2ccc(Oc3ccnc4[nH]nc(NC5CCOCC5)c34)cc2)cc1` [compound 47], the pIC50 at Btk, on Lck and at EGFR was more than 7.00 in each case.

`CN(C/C=C/C(=O)N1CC[C@@H](Nc2n[nH]c3ncnc(Oc4ccc(Oc5ccccc5)cc4)c23)C1)C1CC1` [compound 48]: the pIC50 on Btk is 6.00 to 7.00; on Lck it was 5.00 to 6.00; at EGFR, 6.00 to 7.00.

As to `CCC(=O)N1CCC[C@@H](Nc2n[nH]c3ncnc(Oc4ccc(Oc5ccccc5)cc4)c23)C1` [compound 51], the pIC50 on Btk is 6.00 to 7.00; at Lck, 6.00 to 7.00; against EGFR it was more than 7.00.

For `CN(C/C=C/C(=O)N1CC[C@@H](Nc2n[nH]c3nccc(Oc4ccc(C(=O)Nc5ccccn5)cc4)c23)C1)C1CC1` [compound 55], the pIC50 on Btk is more than 7.00; on Lck, 5.00 to 6.00; at EGFR, less than 5.00.

For `CCCc1ccnc(NC(=O)c2ccc(Oc3ccnc4[nH]nc(N[C@@H]5CCN(C(=O)/C=C/CN(C)C6CC6)C5)c34)cc2)c1` [compound 56], the pIC50 at Btk is more than 7.00; at Lck, 6.00 to 7.00; against EGFR it was 5.00 to 6.00.

In the case of `CN(C/C=C/C(=O)Nc1ccccc1Nc1n[nH]c2nccc(Oc3ccc(Oc4ccccc4)cc3)c12)C1CC1` [compound 57], the pIC50 on Btk, on Lck and against EGFR was less than 5.00 each time.

With `COc1ccnc(NC(=O)c2ccc(Oc3ccnc4[nH]nc(N[C@@H]5CCN(C(=O)/C=C/CN(C)C6CC6)C5)c34)cc2)c1` [compound 58], the results for the pIC50 on Btk, at Lck and against EGFR were more than 7.00, 5.00 to 6.00 and less than 5.00, respectively.

For `NC(=O)c1cc(Nc2n[nH]c3nccc(Oc4ccc(Oc5ccccc5)cc4)c23)ccn1` [compound 59], the values for the pIC50 at Btk, on Lck and on EGFR were 6.00 to 7.00, more than 7.00 and 6.00 to 7.00, respectively.

As to `CN(C/C=C/C(=O)N1CC[C@@H](Nc2n[nH]c3nccc(Oc4ccc(C(=O)Nc5cc(C6CC6)ccn5)cc4)c23)C1)C1CC1` [compound 60], the pIC50 at Btk was more than 7.00; on Lck it was 6.00 to 7.00; against EGFR, 5.00 to 6.00.

Consider `CC(C)c1ccnc(NC(=O)c2ccc(Oc3ccnc4[nH]nc(N[C@@H]5CCN(C(=O)/C=C/CN(C)C6CC6)C5)c34)cc2)c1` [compound 61], for which the pIC50 is more than 7.00 at Btk, 6.00 to 7.00 at Lck and 5.00 to 6.00 against EGFR.

As for `CN(C/C=C/C(=O)N1CC[C@@H](Nc2n[nH]c3nccc(Oc4ccc(C(=O)Nc5cc(C#N)ccn5)cc4)c23)C1)C1CC1` [compound 62], the negative-log IC50 (pIC50) on Btk is more than 7.00; on Lck, 5.00 to 6.00; against EGFR, 5.00 to 6.00.

With `CN(C/C=C/C(=O)N1CC[C@@H](Nc2n[nH]c3nccc(Oc4ccc(C(=O)Nc5ncccn5)cc4)c23)C1)C1CC1` [compound 63], the pIC50 on Btk is 6.00 to 7.00; at Lck, less than 5.00; against EGFR, less than 5.00.

Consider `CN(C/C=C/C(=O)N1CC[C@@H](Nc2n[nH]c3nccc(Oc4ccc(C(=O)Nc5ccncn5)cc4)c23)C1)C1CC1` [compound 64], for which the values for the pIC50 on Btk, at Lck and on EGFR were 6.00 to 7.00, less than 5.00 and less than 5.00, respectively.

Regarding `N#CCNC(=O)c1cc(Nc2n[nH]c3nccc(Oc4ccc(Oc5ccccc5)cc4)c23)ccn1` [compound 65], the values for the pIC50 on Btk, at Lck and on EGFR were 6.00 to 7.00, more than 7.00 and 6.00 to 7.00, respectively.

With `CCC(=O)N1CC[C@@H](Nc2n[nH]c3nccc(Oc4ccc(C(=O)Nc5cc(C(F)(F)F)ccn5)cc4)c23)C1` [compound 66], the pIC50 at Btk was more than 7.00; at Lck, 6.00 to 7.00; against EGFR, 5.00 to 6.00.

With `CN(C/C=C/C(=O)N1CC[C@@H](Nc2n[nH]c3nccc(Oc4ccc(C(=O)Nc5ncc[nH]5)cc4)c23)C1)C1CC1` [compound 67], the pIC50 at Btk was 6.00 to 7.00; on Lck, less than 5.00; at EGFR, less than 5.00.

In the case of `CN(C)c1ccnc(NC(=O)c2ccc(Oc3ccnc4[nH]nc(N[C@@H]5CCN(C(=O)/C=C/CN(C)C6CC6)C5)c34)cc2)c1` [compound 68], the pIC50 on Btk is more than 7.00; at Lck it was 5.00 to 6.00; on EGFR, less than 5.00.

`CCC(=O)N1CC[C@@H](Nc2n[nH]c3nccc(Oc4ccc(C(=O)Nc5nc6ccccc6[nH]5)cc4)c23)C1` [compound 69]: the pIC50 on Btk is 6.00 to 7.00; at Lck, 6.00 to 7.00; at EGFR, less than 5.00.

Consider `CCC(=O)N1CC[C@@H](Nc2n[nH]c3nccc(Nc4ccc(C(=O)Nc5cc(C(F)(F)F)ccn5)cc4)c23)C1` [compound 70], for which the figures for the pIC50 at Btk, at Lck and on EGFR were more than 7.00, 6.00 to 7.00 and 5.00 to 6.00, respectively.

`CCC(=O)N1CC[C@@H](Oc2n[nH]c3nccc(Nc4ccc(C(=O)Nc5cc(C(F)(F)F)ccn5)cc4)c23)C1` [compound 71]: the pIC50 was more than 7.00 at Btk, 6.00 to 7.00 on Lck and 5.00 to 6.00 against EGFR.

For `CCC(=O)N1CC[C@@H](Nc2n[nH]c3nccc(Oc4ccc(C(=O)Nc5nccn5C)cc4)c23)C1` [compound 73, N-(1-methyl-1H-imidazol-2-yl)-4-[(3-{[(3R)-1-propanoylpyrrolidin-3-yl]amino}-1H-pyrazolo[3,4-b]pyridin-4-yl)oxy]benzamide], the pIC50 on Btk, on Lck and against EGFR was less than 5.00 throughout.

As to `CCC(=O)N1CC[C@@H](Nc2n[nH]c3nccc(Oc4ccc(C(=O)Nc5nccc(=O)[nH]5)cc4)c23)C1` [compound 74, N-(6-oxo-1,6-dihydropyrimidin-2-yl)-4-[(3-{[(3R)-1-propanoylpyrrolidin-3-yl]amino}-1H-pyrazolo[3,4-b]pyridin-4-yl)oxy]benzamide], the pIC50 at Btk, at Lck and at EGFR was less than 5.00 throughout.

As for `CCC(=O)N1CC[C@@H](Nc2n[nH]c3nccc(Oc4ccc(C(=O)Nc5nnc(C)[nH]5)cc4)c23)C1` [compound 75, N-(5-methyl-4H-1,2,4-triazol-3-yl)-4-[(3-{[(3R)-1-propanoylpyrrolidin-3-yl]amino}-1H-pyrazolo[3,4-b]pyridin-4-yl)oxy]benzamide], the pIC50 on Btk, at Lck and on EGFR was less than 5.00 in each case.

On to `CN(C/C=C/C(=O)N1CC[C@@H](Nc2n[nH]c3nccc(Oc4ccc(C(=O)Nc5cc(OC6CC6)ccn5)cc4)c23)C1)C1CC1` [compound 76, (R,E)-N-(4-cyclopropoxypyridin-2-yl)-4-(3-(1-(4-(cyclopropyl(methyl)amino)but-2-enoyl)pyrrolidin-3-ylamino)-1H-pyrazolo[3,4-b]pyridin-4-yloxy)benzamide], for which the pIC50 was more than 7.00 on Btk, 6.00 to 7.00 on Lck and 6.00 to 7.00 against EGFR.

The record behind these values is patent US9580416B2, “Inhibitors of Bruton's tyrosine kinase” (PHARMACYCLICS LLC, priority 2014, dated 2017).
